Test results reported in ChEMBL document CHEMBL6103629 (J Med Chem, 2025).

Tests used:
[1] = biological target: Serine/threonine-protein kinase ATR (Homo sapiens, UniProt Q13535); assay: Inhibition of ATR (unknown origin) assessed as reduction in p53 phosphorylation level incubated for 30 mins by TR-FRET assay
CWR22R = assay: Antiproliferative activity against human 22Rv1 cells incubated for 120 hrs by Cell-titer Glo luminescent assay; details: 22Rv1, 120 h
NCI-H1703 [2] = assay: Antitumor activity against human NCI-H1703 cells xenografted in female Balb/c nude mouse assessed as tumor growth inhibition at 50 mg/kg […] administered as 3 days on and 4 days off schedule for 4 weeks relative to control; assay type: functional; details: NCI-H1703, 672 h, time 28 day, read-out: TGI
NCI-H146 = assay: Antiproliferative activity against human NCI-H146 cells; assay type: functional, cell-based
LoVo [3] = assay: Antiproliferative activity against human LoVo cells assessed as reduction in cell viability incubated for 120 hrs by Cell-titer Glo luminescent assay
LoVo [4] = assay: Induction of apoptosis in human LoVo cells assessed as necrotic cells at 3 uM incubated for 24 hrs by Annexin-V-FITC-PI staining based flow cytometric analysis (reference value: 0.97 %); assay type: functional
LoVo [5] = assay: Antitumor activity against human LoVo cells xenografted in female Balb/c nude mouse assessed as tumor growth inhibition at 50 mg/kg QD, po measured every 3 days for 25 days relative to control; assay type: functional; details: 600 h, time 25 day, read-out: TGI
JeKo-1 = assay: Antitumor activity against human JeKo-1 cells xenografted in female CB17 SCID mouse assessed as tumor growth inhibition at 50 mg/kg BID, po measured every 2 days for 24 days relative to control; assay type: functional; details: JeKo-1, 576 h, time 24 day, read-out: TGI
LoVo [6] = assay: Induction of apoptosis in human LoVo cells assessed as early apoptotic cells at 3 uM incubated for 24 hrs by Annexin-V-FITC-PI staining based flow cytometric analysis (reference value: 13.7 %); assay type: functional
LoVo [7] = assay: Induction of apoptosis in human LoVo cells assessed as late apoptotic cells at 3 uM incubated for 24 hrs by Annexin-V-FITC-PI staining based flow cytometric analysis (reference value: 13.2 %); assay type: functional
NCI-H1703 [8] = assay: Antitumor activity against human NCI-H1703 cells xenografted in female Balb/c nude mouse assessed as tumor growth inhibition at 50 mg/kg QD, po measured every 3 days for 28 days by vernier caliper based analysis relative to control; assay type: functional; details: NCI-H1703, 672 h, time 28 day, read-out: TGI
LoVo [9] = assay: Induction of apoptosis in human LoVo cells assessed as viable cells at 3 uM incubated for 24 hrs by Annexin-V-FITC-PI staining based flow cytometric analysis (reference value: 72.1 %); assay type: functional; details: read-out: Activity

Serine/threonine-protein kinase ATR, sequence (Q13535 whole entry): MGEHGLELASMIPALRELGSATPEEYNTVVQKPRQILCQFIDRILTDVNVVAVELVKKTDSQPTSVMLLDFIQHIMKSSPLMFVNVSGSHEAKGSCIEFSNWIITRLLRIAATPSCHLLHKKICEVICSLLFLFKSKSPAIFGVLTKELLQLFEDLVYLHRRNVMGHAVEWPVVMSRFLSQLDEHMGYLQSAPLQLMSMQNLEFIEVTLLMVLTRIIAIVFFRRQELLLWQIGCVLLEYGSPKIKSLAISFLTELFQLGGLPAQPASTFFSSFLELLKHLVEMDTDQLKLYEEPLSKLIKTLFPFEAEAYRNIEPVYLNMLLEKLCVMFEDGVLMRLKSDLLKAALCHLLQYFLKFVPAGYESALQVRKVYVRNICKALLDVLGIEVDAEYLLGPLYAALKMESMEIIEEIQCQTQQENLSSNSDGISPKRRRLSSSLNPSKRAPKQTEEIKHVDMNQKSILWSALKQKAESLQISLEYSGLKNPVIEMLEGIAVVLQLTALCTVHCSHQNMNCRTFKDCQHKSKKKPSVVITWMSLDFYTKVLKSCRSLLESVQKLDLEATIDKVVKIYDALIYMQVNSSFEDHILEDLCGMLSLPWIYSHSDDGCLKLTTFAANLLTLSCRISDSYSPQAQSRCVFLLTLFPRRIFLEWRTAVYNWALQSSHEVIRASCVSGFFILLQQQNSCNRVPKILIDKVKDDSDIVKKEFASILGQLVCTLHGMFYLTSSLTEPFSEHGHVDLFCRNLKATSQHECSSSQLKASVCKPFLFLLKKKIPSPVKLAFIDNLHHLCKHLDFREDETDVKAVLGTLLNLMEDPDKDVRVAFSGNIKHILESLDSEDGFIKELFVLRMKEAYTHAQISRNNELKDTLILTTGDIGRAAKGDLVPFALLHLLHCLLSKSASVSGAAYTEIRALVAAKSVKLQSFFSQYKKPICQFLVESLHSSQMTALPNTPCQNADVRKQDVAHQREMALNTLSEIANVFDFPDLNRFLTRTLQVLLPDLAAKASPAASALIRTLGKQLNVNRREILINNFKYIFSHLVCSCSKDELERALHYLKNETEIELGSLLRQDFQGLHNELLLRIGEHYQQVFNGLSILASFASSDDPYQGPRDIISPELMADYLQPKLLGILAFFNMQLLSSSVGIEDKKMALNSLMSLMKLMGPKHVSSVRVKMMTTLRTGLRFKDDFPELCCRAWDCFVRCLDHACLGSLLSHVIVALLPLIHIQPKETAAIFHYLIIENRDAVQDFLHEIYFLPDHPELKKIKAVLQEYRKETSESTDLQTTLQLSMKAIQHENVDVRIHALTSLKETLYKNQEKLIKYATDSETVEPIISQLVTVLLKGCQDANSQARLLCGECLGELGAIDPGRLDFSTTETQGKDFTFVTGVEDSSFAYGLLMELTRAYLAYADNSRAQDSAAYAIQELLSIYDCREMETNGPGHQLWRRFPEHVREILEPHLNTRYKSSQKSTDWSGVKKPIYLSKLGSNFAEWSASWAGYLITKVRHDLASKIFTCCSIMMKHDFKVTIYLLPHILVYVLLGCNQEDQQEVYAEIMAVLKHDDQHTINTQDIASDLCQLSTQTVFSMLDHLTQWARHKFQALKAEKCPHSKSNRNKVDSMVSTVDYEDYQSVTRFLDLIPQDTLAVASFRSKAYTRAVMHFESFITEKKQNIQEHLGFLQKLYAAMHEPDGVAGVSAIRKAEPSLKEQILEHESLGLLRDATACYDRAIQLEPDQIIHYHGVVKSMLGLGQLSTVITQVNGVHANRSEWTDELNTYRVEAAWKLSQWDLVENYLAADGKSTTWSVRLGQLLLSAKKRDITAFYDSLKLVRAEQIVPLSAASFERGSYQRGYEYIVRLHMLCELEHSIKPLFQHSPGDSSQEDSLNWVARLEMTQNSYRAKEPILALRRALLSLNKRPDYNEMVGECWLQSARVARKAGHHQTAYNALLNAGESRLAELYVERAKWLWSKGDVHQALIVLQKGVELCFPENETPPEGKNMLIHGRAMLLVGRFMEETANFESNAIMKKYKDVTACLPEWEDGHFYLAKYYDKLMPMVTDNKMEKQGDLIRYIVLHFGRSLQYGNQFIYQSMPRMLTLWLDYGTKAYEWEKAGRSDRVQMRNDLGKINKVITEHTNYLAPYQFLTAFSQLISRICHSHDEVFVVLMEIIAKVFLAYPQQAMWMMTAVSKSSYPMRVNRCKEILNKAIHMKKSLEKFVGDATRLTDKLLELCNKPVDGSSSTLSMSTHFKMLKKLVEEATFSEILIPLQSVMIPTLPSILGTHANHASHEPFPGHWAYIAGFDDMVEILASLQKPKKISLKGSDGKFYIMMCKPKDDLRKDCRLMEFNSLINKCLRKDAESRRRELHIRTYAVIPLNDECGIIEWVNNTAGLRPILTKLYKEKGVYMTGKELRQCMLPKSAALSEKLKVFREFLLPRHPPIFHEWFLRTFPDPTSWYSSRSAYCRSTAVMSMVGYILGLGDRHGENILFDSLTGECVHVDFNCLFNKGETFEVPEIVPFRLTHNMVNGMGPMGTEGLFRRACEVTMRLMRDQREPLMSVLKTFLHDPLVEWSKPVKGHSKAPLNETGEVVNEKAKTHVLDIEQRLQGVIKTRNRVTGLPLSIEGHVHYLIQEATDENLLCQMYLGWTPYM

| SMILES | IC50 (CWR22R) | other results |
| --- | --- | --- |
| Cc1n[nH]c(C)c1-c1cc(N2CC3CCC(C2)O3)nc2c(-c3ccnn3C)cnn12 | 6.48 µM | IC50 [1]: > 0.5 µM |
| Nc1ccn([C@@H]2O[C@H](CO)[C@@H](O)C2(F)F)c(=O)n1 [GEMCITABINE] | – | inhibition in vivo at 50 mg/kg (NCI-H1703 [2]): 76.7% |
| Cc1nn(C2CCNCC2)c(C)c1-c1cc(N2CC3CCC(C2)O3)nc2c(-c3ccn[nH]3)cnn12 | 4.33 µM | – |
| Cn1cncc1-c1c(F)cncc1NC(=O)c1c(N)nn2cc(F)cnc12 [TUVUSERTIB] | – | IC50 (NCI-H146): 0.73 µM; IC50 [1]: < 1 µM |
| Cc1nn(C2CCCNC2)c(C)c1-c1cc(N2CC3CCC(C2)O3)nc2c(-c3ccn[nH]3)cnn12 (stereo not given) | 4.53 µM | – |
| COc1cncc(-n2nc(C)c(-c3cc(N4CC5CCC(C4)O5)nc4c(-c5ccn[nH]5)cnn34)c2C)c1 | 0.37 µM | – |
| Cc1n[nH]c(C)c1-c1nc(N2CCOC[C@H]2C)c2nc(-c3cccc4[nH]ccc34)ccc2n1 | – | IC50 (LoVo [3]): 0.246 µM |
| CCOc1cncc(-n2nc(C)c(-c3cc(N4CC5CCC(C4)O5)nc4c(-c5ccn[nH]5)cnn34)c2C)c1 | 0.515 µM | – |
| Cc1nn(-c2cncc(Cl)c2)c(C)c1-c1cc(N2CC3CCC(C2)O3)nc2c(-c3ccn[nH]3)cnn12 | 0.675 µM | – |
| Cc1n[nH]c(C)c1-c1cc(N2CC3CCC(C2)O3)n2ncc(-c3cn[nH]c3)c2n1 | 1.73 µM | – |
| Cc1nn(-c2ccc(N)nc2)c(C)c1-c1cc(N2CC3CCC(C2)O3)nc2c(-c3ccn[nH]3)cnn12 | 0.199 µM | – |
| Cc1n[nH]c(C)c1-c1cc(N2CC3CCC(C2)O3)n2ncc(-c3cnn(C)c3)c2n1 | 0.943 µM | – |
| C[C@@H]1COCCN1c1cc(C2([S@](C)(=N)=O)CC2)nc(-c2cc[nH]c3nccc2-3)n1 [CERALASERTIB] | 0.92 µM | Activity (LoVo [4]): 1.93%; inhibition in vivo at 50 mg/kg (LoVo [5]): 57%; inhibition in vivo at 50 mg/kg (JeKo-1): 90.6%; Activity (LoVo [6]): 19.3%; Activity (LoVo [7]): 24%; inhibition in vivo at 50 mg/kg (NCI-H1703 [8]): 34%; viability at 3 µM (LoVo [9]): 54.7% |
| Cc1n[nH]c(C)c1-c1cc(C23CCC(CNC2)O3)nc2c(-c3cccs3)cnn12 (stereo not given) | 0.988 µM | – |
| Cc1nn(-c2cccnc2)c(C)c1-c1cc(N2C3CCC2COC3)nc2c(-c3ccn[nH]3)cnn12 | 0.332 µM | – |
| Cc1nn(-c2cccnc2)c(C)c1-c1cc(N2C[C@H]3C[C@@H]2CO3)nc2c(-c3ccn[nH]3)cnn12 | > 10 µM | – |
